Key:
C6 glial cells [1] = assay: Whole-cell patch-clamp recording of VacA-induced currents; format: cell-based, rat; conditions: extracellular application, 100 μM, pH 7.4
Method: Using wide-tipped electrodes (to 2 MΩ), observation according to whole-cell recording (patch-clamp methods) was performed at room temperature (23-25° C.) as reported previously (Kubo M., Okada Y., “Volume-regulatory Cl^− channel currents in cultured human epithelial cells”, J. Physiol. 456, 351-371, 1992). Series resistance (<5 MΩ) was compensated (to 60% to 70%) to minimize voltage errors. Time course of current change was monitored by applying (every 15 s) alternating step pulses ([…]) from a holding potential of 0 to ±40 mV. To monitor voltage dependence of a whole-cell volume-sensitive current, step pulses (2-s duration) were applied from a prepotential of −60 mV (2-s duration) to test potentials of −60 to 100 mV in 20 mV increments after attaining steady-state activation of swelling-induced current. […] Instantaneous currents were recorded 2.5 ms after application of step pulses. […] Currents were recorded using an EPC-9 amplifier (HEKA, Lambrechet, Germany). […]
Cell swelling was induced by hypotonic (270 mosmol/kg H2O) solution in which mannitol was reduced to 40 mM. […] Permeability properties of VacA-induced channels were also assessed by using the following solutions: […]
Relative anion permeability was also assessed by replacing 115 mM extracellular Cl^− with aspartate. […]

C6 glial cells [2] = format: cell-based, rat
Method: Cell volume was assessed according to a Coulter principle using a flow cytometer (EPICS Elite ESP, Coulter Co., Miami, Fla.). Cell viability was also assessed under a flow cytometry by a propidium iodide exclusion test. The cell suspension of 10 ml was incubated at 37° C. fro 1 min after adding 2 μl of PBS containing 10 mg/ml propidium iodide. Mean cell volume was measured at a given time by introducing 350 μl of the cell suspension containing 2×10^4 cells into the flow cytometer. A baseline cell volume was obtained as mean of values measured before and after a 20-min incubation in control solution (pH 7.4). Thereafter, effects of acidosis (pH 6.2), lactacidosis (pH 6.2), or lactate (pH 7.4) were assessed with addition of (i) HCl, (ii) lactate, or (iii) lactate and Tris. After the cells were preincubated with control (pH 7.4), acidic (pH 6.2), or lactacidosis (pH 6.2 with lactate) solution (all isotonic), effects of a hypotonic challenge were also assessed by diluting the isotonic medium with a 30% volume of deionized distilled water.
Composition of control solution employed for cell volume measurements was as follows: 125 mM NaCl, 2.5 mM KCl, 2 mM CaCl2, 1.0 mM MgCl2, 10 mM glucose, 1.25 mM NaH2PO4, and 25 mM NaHCO3 (pH 7.4, in 95% air/5% CO2). […] Molar osmolality measured by a freezing-point depression osmometer (Vogel, Giessen, Germany) was, 300, 306, and 312 mosmol/kg-H2O. […]

Row | Compound | effect on VacA-mediated current (C6 glial cells [1]) | volume regulation after lactacidosis-induced transient swelling in VacA-treated cells (C6 glial cells [2]; 100 μM NPPB, VacA-treated cells) | lactacidosis-induced persistent cell swelling (C6 glial cells [2]; pretreatment with gramicidin 0.5 μM)
1 | O=C(O)c1cc([N+](=O)[O-])ccc1NCCCc1ccccc1 [NPPB] | strongly inhibited | abolished | 
2 | gramicidin |  |  | not prevented
